In patent US6992215B2, “Thiol-based NAALADase inhibitors” (Guildford Pharmaceuticals Inc., priority 2001, dated 2006):

What was measured:
[1] = system: chronic constrictive injury-induced rats; test: Neuropathic pain in CCI model (sciatic nerve ligation, thermal hyperalgesia); type: in vivo; conditions: 50 mg/kg i.p. daily starting 10 days post surgery
Procedure: Sciatic nerve ligation, consisting of 4 ligatures tied loosely around the sciatic nerve at 1 mm intervals proximal to the nerve trifurcation, was performed on rats. […] The rats were habituated to a Hargreaves apparatus. An infrared heat source was directed onto the dorsal surface of each rat's hindpaws and the time taken for the rat to withdraw its paws was noted. The difference in scores between the latency of the response for the paw on the operated side versus the paw on the unoperated control side was determined.
The rats were treated with either Compound 49 (10, 1 or 0.1 mg/kg) or a vehicle for 15 days after sciatic nerve ligation. Thermal pain responses were measured at days 0, 1, 5, 8, 11 and 15. The differences in scores for the rats treated with a vehicle and the rats treated with Compound 49 are graphically presented in FIGS. 13-15.
The rats were treated with either Compound 5 (50, 30, 10, 3, 1 or 0.3 mg/kg) or a vehicle for 12 (or 15) days after sciatic nerve ligation. Thermal pain responses were measured at days 0, 1, 5, 8 and 12 (and 15). The differences in scores for the rats treated with a vehicle and the rats treated with Compound 5 are graphically presented in FIGS. 17-22.
The rats received either Compound C (50 mg/kg i.p. daily) or a vehicle starting 10 days post surgery. […] Normal (unoperated) rats had approximately equal latencies for both paws. This effect was significant starting at 11 days of drug treatment and persisted through to the end of the study (for 21 days of daily dosing).

TGF-β1 [2] = test: Effect of NAALADase inhibition on TGF-β1 in in vitro ischemia model; type: cell-based; conditions: ischemic cell cultures, FIG. 1
Procedure: (§1) A NAALADase inhibitor, Compound C, was added to ischemia cell cultures to determine its effect on TGF-β levels during stroke.

ischemic cell cultures = test: Neuroprotective effect in in vitro ischemia model with growth factor neutralizing antibodies; type: cell-based
Procedure: TGF-β neutralizing antibodies were then added to the ischemic cell cultures.

TGF-β1 [3] = test: TGF-β1 levels in MCAO rats assessed by microdialysis; type: in vivo; conditions: during both occlusion and reperfusion, FIG. 6
TGF-β2 = test: Effect of NAALADase inhibition on TGF-β2 in in vitro ischemia model; type: cell-based; conditions: ischemic cell cultures, FIG. 2
Procedure: as §1

[4] = system: rats subjected to middle cerebral artery occlusion; test: Neuroprotective effect in MCAO rats with TGF-β neutralizing antibodies; type: in vivo; conditions: FIG. 5
Description: The effect of TGF-β neutralizing antibodies on the neuroprotective effect of Compound C was also studied in rats following MCAO.
One of ordinary skill in the art can appreciate that the regulation of TGF-β's by NAALADase inhibitors may have implications not only in stroke, but also in other diseases, disorders and conditions including, without limitation, neurological diseases, psychiatric diseases, demyelinating diseases, prostate cancer, inflammation, diabetes and angiogenesis.

For O=C(O)CCC(CP(=O)(O)O)C(=O)O (centres unmarked) [Compound C, 2-(phosphonomethyl)pentanedioic acid], the “time of drug treatment from which the effect was significant” value [1] was 11 days, the “difference scores between the two paws” value ([1]; FIG. 8) was “dramatically normalized” and the TGF-β1 concentrations (TGF-β1 [2]) was “increased concentrations”. The “neuroprotective effect in the presence of TGF-β neutralizing antibodies” value (ischemic cell cultures; FIG. 3) was “blocked”, the “neuroprotective effect in the presence of FGF antibody” value (ischemic cell cultures; FIG. 4) was “did not block” and the TGF-β1 levels (TGF-β1 [3]) was “significant rise”. The TGF-β2 concentrations (TGF-β2) was “increased concentrations” and the “neuroprotective effect in vivo in the presence of TGF-β neutralizing antibodies” value [4] was “significantly attenuated”.
